Source: the NIST ThermoML archive (doi:10.1021/je900414p)

Experiment: xn = mol fraction of the nth substance listed
Settings: Liquid

CCOS(=O)(=O)[O-].CCn1cc[n+](C)c1 [1-ethyl-3-methylimidazolium ethyl sulfate] + CCO
mass density [kg/m3]
Settings | 100 kPa | 2500 kPa | 5000 kPa | 10000 kPa | 15000 kPa | 20000 kPa | 25000 kPa | 30000 kPa | 35000 kPa
298.15 K, x1 = 0.05056 | 855.98 | 857.88 | 859.83 | 863.62 | 867.22 | 870.7 | 874.05 | 877.28 | 880.4
298.15 K, x1 = 0.103 | 913.93 | 915.61 | 917.4 | 920.89 | 924.24 | 927.48 | 930.6 | 933.63 | 936.57
298.15 K, x1 = 0.1247 | 935.16 | 936.81 | 938.54 | 941.91 | 945.16 | 948.3 | 951.34 | 954.29 | 957.15
298.15 K, x1 = 0.2126 | 1003.9 | 1005.45 | 1007.01 | 1010.07 | 1013.02 | 1015.88 | 1018.67 | 1021.38 | 1024.03
298.15 K, x1 = 0.2919 | 1052 | 1052.97 | 1054.41 | 1057.22 | 1059.95 | 1062.62 | 1065.22 | 1067.75 | 1070.23
298.15 K, x1 = 0.3185 | 1065.62 | 1066.9 | 1068.3 | 1071.05 | 1073.73 | 1076.33 | 1078.88 | 1081.37 | 1083.79
298.15 K, x1 = 0.4198 | 1109.11 | 1110.35 | 1111.65 | 1114.21 | 1116.72 | 1119.15 | 1121.54 | 1123.89 | 1126.17
298.15 K, x1 = 0.4847 | 1131.56 | 1132.76 | 1133.99 | 1136.46 | 1138.86 | 1141.21 | 1143.53 | 1145.8 | 1148.02
298.15 K, x1 = 0.5713 | 1157.07 | 1158.2 | 1159.39 | 1161.74 | 1164.05 | 1166.31 | 1168.52 | 1170.7 | 1172.85
298.15 K, x1 = 0.6827 | 1183.93 | 1185.01 | 1186.16 | 1188.41 | 1190.6 | 1192.77 | 1194.89 | 1197 | 1199.05
298.15 K, x1 = 0.7919 | 1205.61 | 1206.51 | 1207.59 | 1209.76 | 1211.88 | 1213.98 | 1216.03 | 1218.05 | 1220.04
298.15 K, x1 = 0.9317 | 1227.5 | 1228.53 | 1229.57 | 1231.66 | 1233.72 | 1235.74 | 1237.73 | 1239.69 | 1241.63
303.15 K, x1 = 0.05056 | 851.9 | 853.85 | 855.87 | 859.72 | 863.43 | 866.98 | 870.39 | 873.69 | 876.89
303.15 K, x1 = 0.103 | 910.06 | 911.7 | 913.54 | 917.1 | 920.52 | 923.82 | 927 | 930.09 | 933.1
303.15 K, x1 = 0.1247 | 931.25 | 932.93 | 934.69 | 938.12 | 941.44 | 944.64 | 947.74 | 950.74 | 953.67
303.15 K, x1 = 0.2126 | 1000.1 | 1001.68 | 1003.26 | 1006.36 | 1009.37 | 1012.29 | 1015.12 | 1017.88 | 1020.58
303.15 K, x1 = 0.2919 | 1048.63 | 1049.46 | 1050.92 | 1053.74 | 1056.51 | 1059.18 | 1061.79 | 1064.33 | 1066.82
303.15 K, x1 = 0.3185 | 1061.99 | 1063.29 | 1064.7 | 1067.49 | 1070.22 | 1072.86 | 1075.44 | 1077.96 | 1080.42
303.15 K, x1 = 0.4198 | 1105.54 | 1106.82 | 1108.14 | 1110.73 | 1113.28 | 1115.76 | 1118.18 | 1120.55 | 1122.89
303.15 K, x1 = 0.4847 | 1128.01 | 1129.22 | 1130.5 | 1132.99 | 1135.43 | 1137.83 | 1140.16 | 1142.46 | 1144.71
303.15 K, x1 = 0.5713 | 1153.59 | 1154.71 | 1155.92 | 1158.31 | 1160.66 | 1162.94 | 1165.19 | 1167.4 | 1169.59
303.15 K, x1 = 0.6827 | 1180.46 | 1181.59 | 1182.73 | 1185 | 1187.24 | 1189.45 | 1191.6 | 1193.74 | 1195.84
303.15 K, x1 = 0.7919 | 1202.24 | 1203.1 | 1204.19 | 1206.38 | 1208.54 | 1210.64 | 1212.73 | 1214.77 | 1216.82
303.15 K, x1 = 0.9317 | 1224.05 | 1225.06 | 1226.12 | 1228.23 | 1230.32 | 1232.36 | 1234.37 | 1236.36 | 1238.34
